Experimental data from PMC12664280, “Integrative transcriptomics and peptidomics approach reveals unexpectedly diverse endogenous secretory peptides in Odorrana grahami frog skin” (BMC Biology, 2025).
In brackets after ≈: the same amount, converted by molar mass. Where a SMILES comes first, the peptide text is derived from it. Bridges are numbered along the chain shown (N, C = ends).

Experiments:
Assay type in all cases: cell-based
[1] = system: Enterococcus faecalis ATCC 29212; assay: microbe, parasite or virus in culture
Method: (§1) Ranatuerin-2P-OG1 synthesis was performed by Royobiotech Co., Ltd. (Shanghai, China) using solid-phase peptide synthesis. The crude peptide was purified by RP-HPLC and its purity was confirmed to exceed 90% via ESI-MS analysis. Antimicrobial assays with various microbial strains were conducted, including gram-positive Staphylococcus aureus ATCC 29213 and its methicillin-resistant variant (MRSA) CIB 8546, Enterococcus faecalis ATCC 29212, gram-negative Pseudomonas aeruginosa ATCC 27853 and Escherichia coli ATCC 25922, and fungal Candida albicans CCMCC(F) 98001. Bacterial cultures were maintained in cation-adjusted Mueller-Hinton broth (MHB) at 35°C for 16-20 h, whereas fungal cultures were grown in Sabouraud dextrose broth (SDB) at 28°C for 48 h.

[2] = system: Escherichia coli ATCC 25922; assay: microbe, parasite or virus in culture
Method: as §1

[3] = system: Staphylococcus aureus ATCC 29213; assay: microbe, parasite or virus in culture
Method: as §1

[4] = system: methicillin-resistant Staphylococcus aureus (MRSA) CIB 8546; assay: microbe, parasite or virus in culture
Method: as §1

[5] = system: Pseudomonas aeruginosa ATCC 27853; assay: Antimicrobial assay, MIC by broth microdilution; conditions: ATCC27853, highest test concentration 128 μg/mL, read-out: minimum inhibitory concentration (MIC), Pseudomonas aeruginosa
Method: as §1

[6] = system: Candida albicans CCMCC(F) 98001
Method: as §1

MIC ([1]; ATCC29212, broth microdilution, Enterococcus faecalis ATCC 29212, read-out: minimum inhibitory concentration (MIC), Enterococcus faecalis) [µg/mL]	MIC ([2]; ATCC25922, broth microdilution, Escherichia coli ATCC 25922, read-out: minimum inhibitory concentration (MIC), Escherichia coli) [µg/mL]	MIC ([3]; ATCC29213, broth microdilution, Staphylococcus aureus ATCC 29213, read-out: minimum inhibitory concentration (MIC), Staphylococcus aureus) [µg/mL]	MIC ([4]; Staphylococcus aureus, broth microdilution, MRSA CIB 8546, read-out: minimum inhibitory concentration (MIC), MRSA) [µg/mL]	MIC [5] [µg/mL]	minimum inhibitory concentration (MIC), Enterococcus faecalis ([1]; ATCC 29212) [µg/mL]	minimum inhibitory concentration (MIC), Escherichia coli ([2]; ATCC 25922) [µg/mL]	minimum inhibitory concentration (MIC), Staphylococcus aureus ([3]; ATCC 29213) [µg/mL]	minimum inhibitory concentration (MIC), MRSA ([4]; methicillin-resistant CIB 8546) [µg/mL]	minimum inhibitory concentration (MIC), Candida albicans [6] [µg/mL]	SMILES
2 (≈ 5.72 µM)	8 (≈ 22.9 µM)	1 (≈ 2.86 µM)	128 (≈ 366 µM)	> 128						CC1(C)S[C@@H]2[C@H](NC(=O)[C@H](N)c3ccccc3)C(=O)N2[C@H]1C(=O)O [Ampicillin, reference compound]
					256 (≈ 84.7 µM)	128 (≈ 42.3 µM)	64 (≈ 21.2 µM)	64 (≈ 21.2 µM)	512 (≈ 169 µM)	CC[C@H](C)[C@H](NC(=O)[C@H](CCCCN)NC(=O)[C@H](CC(=O)O)NC(=O)[C@H](CCCCN)NC(=O)[C@@H](NC(=O)[C@@H](NC(=O)CNC(=O)[C@H](C)NC(=O)[C@@H](NC(=O)[C@H](CC(N)=O)NC(=O)[C@@H](NC(=O)[C@H](CC(C)C)NC(=O)[C@@H](NC(=O)[C@H](CC(N)=O)NC(=O)[C@H](CC(C)C)NC(=O)[C@@H](NC(=O)[C@@H](NC(=O)[C@H](CC(N)=O)NC(=O)[C@H](CCSC)NC(=O)[C@H](CC(C)C)NC(=O)CN)[C@@H](C)O)C(C)C)C(C)C)[C@@H](C)O)C(C)C)[C@@H](C)O)C(C)C)C(=O)N[C@@H](CCCCN)C(=O)N[C@H]1CSSC[C@@H](C(=O)O)NC(=O)CNC(=O)CNC(=O)[C@H]([C@@H](C)O)NC(=O)[C@H](Cc2ccccc2)NC(=O)[C@H](CCCCN)NC1=O [ranatuerin-2P-OG1] (H-GLMNTVLNVLTNVAGTVKDKIKCKFTGGC-OH; disulfide 23-29)
